The values below come from DBAASP.

Among the test systems are Aeromonas salmonicida; Vibrio anguillarum; Aeromonas veronii CL0901; Staphylococcus hyicus; Candida albicans; Staphylococcus aureus MR.
Common to all, as to experiment: ≥ marks a high value that may be exact or a test limit, other limits are often not marked, values filed in µg/mL are converted to µM
The subject of experiment [1] is Pseudomonas aeruginosa K799.
The subject of experiment [2] is Pseudomonas aeruginosa Z61.
Experiment [3] deals with Salmonella enterica serovar typhimurium MS7953s.
The test system of experiment [4] is Salmonella enterica subsp. enterica serovar Typhimurium ATCC 14028s.
In experiment [5] the test system is Staphylococcus epidermidis C621.
For experiment [6], the system named is Aeromonas veronii ATCC 35624.
The test system of experiment [7] is Aeromonas veronii X-1-06909.
Experiment [8] relates to Candida albicans CMCC 98001.
The test system of experiment [9] is Escherichia coli CVCC 1515.
The test system of experiment [10] is Escherichia coli CVCC 195.
Experiment [11] relates to Escherichia coli CVCC 25922.
Experiment [12] deals with Escherichia coli CVCC O157.
Experiment [13] relates to Pseudomonas aeruginosa CICC 21630.
Experiment [14] relates to Salmonella enterica subsp. enterica serovar Enteritidis CVCC 3377.
The subject of experiment [15] is Salmonella enterica subsp. enterica serovar Pullorum CVCC 1789.
The subject of experiment [16] is Salmonella enterica subsp. enterica serovar Pullorum CVCC 1809.
The subject of experiment [17] is Salmonella enterica subsp. enterica serovar Pullorum CVCC 533.
The test system of experiment [18] is Salmonella enterica subsp. enterica serovar Typhimurium ATCC 14028.
The subject of experiment [19] is Staphylococcus aureus ATCC 25923.
The test system of experiment [20] is Staphylococcus aureus ATCC 43300.
Experiment [21] has as its system Staphylococcus aureus ATCC 546.
For experiment [22], the system named is Staphylococcus hyicus NCTC 10350.
For experiment [23], the system named is Pseudomonas aeruginosa ATCC 27853.
Experiment [24] has as its system Staphylococcus aureus ATCC 49476.
The test system of experiment [25] is Acinetobacter baumannii ATCC 19606.
Experiment [26] deals with Bacillus megaterium ATCC 13632.
Experiment [27] concerns Bacillus subtilis ATCC 6051.
The subject of experiment [28] is Candida albicans ATCC 90028.
For experiment [29], the system named is Candida tropicalis ATCC 750.
Experiment [30] concerns Cryptococcus neoformans ATCC 208821.
Experiment [31] deals with Enterococcus faecium ATCC 35667.
Experiment [32] concerns Escherichia coli ATCC 25922.
The subject of experiment [33] is Klebsiella pneumoniae ATCC 700603.
For experiment [34], the system named is Staphylococcus aureus ATCC 29213.
Experiment [35] deals with Staphylococcus aureus VRSA1.
For experiment [36], the system named is Streptococcus pneumoniae ATCC 700677.

Molecules are shown by their SMILES. ≈ marks a conversion by molar mass, not a printed value.

With `CC[C@H](C)[C@H](NC(=O)[C@@H](N)CO)C(=O)NCC(=O)N[C@@H](CO)C(=O)N[C@@H](C)C(=O)N[C@@H](Cc1ccccc1)C(=O)N[C@@H](CCCCN)C(=O)N[C@@H](CCCCN)C(=O)N[C@@H](C)C(=O)N[C@@H](C)C(=O)N[C@@H](Cc1cnc[nH]1)C(=O)N[C@H](C(=O)NCC(=O)N[C@@H](CCCCN)C(=O)N[C@@H](Cc1cnc[nH]1)C(=O)N[C@H](C(=O)NCC(=O)N[C@@H](CCCCN)C(=O)N[C@@H](C)C(=O)N[C@@H](C)C(=O)N[C@@H](CC(C)C)C(=O)N[C@H](C(=O)N[C@@H](Cc1cnc[nH]1)C(=O)N[C@@H](Cc1ccc(O)cc1)C(=O)N[C@@H](CC(C)C)C(=O)N[C@@H](CC(N)=O)C(=O)O)[C@@H](C)O)C(C)C)C(C)C` [SIGSAFKKAAHVGKHVGKAALTHYLN], the MIC in the experiment on Aeromonas salmonicida is 2.96 µM (≈ 8 µg/mL); in experiment [1] it was 23.7 µM (≈ 64 µg/mL); in experiment [2] it was 23.7 µM (≈ 64 µg/mL); in [3], 0.739 µM (≈ 2 µg/mL); in experiment [4], 23.7 µM (≈ 64 µg/mL); in [5], 23.7 µM (≈ 64 µg/mL). The molecule further came in with a minimal inhibitory concentration (MIC) against Vibrio anguillarum of 23.7 µM (≈ 64 µg/mL).

With `CC(C)[C@H](N)C(=O)N[C@@H](Cc1ccccc1)C(=O)N[C@@H](C)C(=O)N[C@@H](Cc1c[nH]c2ccccc12)C(=O)N[C@@H](CC(N)=O)C(=O)N[C@H](C(=O)N[C@H]1CSSC[C@@H](C(=O)N[C@@H](Cc2cnc[nH]2)C(=O)N[C@@H](CCCN=C(N)N)C(=O)N[C@@H](CCCN=C(N)N)C(=O)N[C@@H](C)C(=O)N[C@@H](CC(N)=O)C(N)=O)NC(=O)[C@H](C(C)C)NC(=O)[C@H](CCCN=C(N)N)NC(=O)[C@H](C(C)C)NC(=O)[C@H](C(C)C)NC(=O)[C@H](CC(N)=O)NC(=O)[C@H](CCCN=C(N)N)NC(=O)[C@H](Cc2ccc(O)cc2)NC(=O)[C@H](C(C)C)NC1=O)C(C)C` [VFAWNVCVYRNVVRVCHRRAN], the MIC in experiment [6] is 6.25 µM (≈ 16 µg/mL); in the experiment with Aeromonas veronii CL0901, 12.5 µM (≈ 32 µg/mL); in [7], 12.5 µM (≈ 32 µg/mL); in experiment [8], at least 50 µM; in experiment [9], 1.56 µM (≈ 4 µg/mL); in experiment [10], 3.12 µM (≈ 7.99 µg/mL). For the same molecule, the MIC in experiment [11] amounted to 3.12 µM (≈ 7.99 µg/mL); in experiment [12] it was 3.12 µM (≈ 7.99 µg/mL); in experiment [13] it was 12.5 µM (≈ 32 µg/mL); in [14] it was 0.781 µM (≈ 2 µg/mL); in experiment [15] it was 6.25 µM (≈ 16 µg/mL); in experiment [16], 3.12 µM (≈ 7.99 µg/mL). Besides, the MIC in experiment [17] stood at 6.25 µM (≈ 16 µg/mL); in experiment [18], 6.25 µM (≈ 16 µg/mL); in experiment [19], 12.5 µM (≈ 32 µg/mL); in experiment [20] it was 12.5 µM (≈ 32 µg/mL); in experiment [21] it was 6.25 µM (≈ 16 µg/mL); in experiment [22], 25 µM (≈ 63.9 µg/mL). Further, the MIC against Staphylococcus hyicus was 12.5 µM (≈ 32 µg/mL).

Consider `CC[C@H](C)[C@H](NC(=O)[C@H](C)NC(=O)[C@H](CCCCN)NC(=O)CNC(=O)[C@H](C)NC(=O)[C@H](CO)NC(=O)[C@H](Cc1ccccc1)NC(=O)[C@H](CC(C)C)NC(=O)CNC(=O)CNC(=O)[C@@H](NC(=O)[C@@H](NC(=O)[C@H](Cc1cnc[nH]1)NC(=O)[C@H](Cc1cnc[nH]1)NC(=O)[C@@H](NC(=O)[C@@H](N)Cc1ccccc1)[C@@H](C)CC)[C@@H](C)CC)[C@@H](C)CC)C(=O)N[C@@H](Cc1cnc[nH]1)C(=O)N[C@@H](CCCN=C(N)N)C(=O)N[C@@H](Cc1cnc[nH]1)C(=O)N[C@@H](Cc1cnc[nH]1)C(=O)N[C@@H](CCCN=C(N)N)C(=O)N[C@@H](CCCN=C(N)N)C(=O)N[C@@H](CCCN=C(N)N)C(=O)N[C@@H](CCCN=C(N)N)C(=O)N[C@@H](CCCN=C(N)N)C(=O)O` [FIHHIIGGLFSAGKAIHRHHRRRRR], for which the MIC against Candida albicans is 42.3 µM (≈ 128 µg/mL); in [23] it was 84.5 µM (≈ 256 µg/mL); in [24], at least 42.3 µM; in the experiment with Staphylococcus aureus MR it was at least 169 µM.

Take `CC[C@H](C)[C@H](N)C(=O)N[C@@H](Cc1ccccc1)C(=O)N[C@@H](Cc1c[nH]c2ccccc12)C(=O)N[C@@H](CC(C)C)C(=O)N[C@@H](Cc1ccccc1)C(=O)N[C@@H](CCCN=C(N)N)C(=O)NCC(=O)N[C@@H](CCCCN)C(=O)N[C@@H](C)C(=O)N[C@@H](CC(=O)O)C(=O)N[C@H](C(=O)N[C@@H](C)C(=O)N[C@@H](CC(C)C)C(N)=O)C(C)C` [IFWLFRGKADVAL]: the MIC was above 167 µM in experiment [25]; 29.5 µM (≈ 45.2 µg/mL) in experiment [26]; at least 41.7 µM in experiment [27]; at least 83.3 µM in [28]; at least 83.3 µM in experiment [29]; 14.7 µM (≈ 22.6 µg/mL) in experiment [30]. In addition, the minimum inhibitory concentration (MIC) in experiment [31] was at least 41.7 µM; in experiment [32], above 167 µM; in [33] it was above 167 µM; in experiment [23], above 167 µM; in experiment [34], above 83.3 µM; in experiment [20], above 83.3 µM. The MIC in experiment [35] and in [36] was at least 83.3 µM throughout.
